“And” between values parts separate entries of the source, which are not always exact repeats. Identical values can stand only once. Like-named read-outs stand apart in the source and are kept apart here.
Experiments:
human α-thrombin = human α-thrombin (Homo sapiens, UniProt P00734); experiment: Protease inhibition, Ki for human α-thrombin (fluorogenic substrate Z-Gly-Gly-Arg-AMC); format: biochemical; settings: for slope normalized to DMSO, human alpha thrombin inhibition / Human alpha thrombin inhibition, slope normalized to DMSO: replicates R1-R3
How it was run: (§1)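 Ki derived through Cheng–Prusoff from IC50s (four-parameter logistic fit) against activity of peptide-free controls. Product fluorescence was read every 3 min over 30 min at 25 °C, substrate Z-Gly-Gly-Arg-AMC at 50 μM. Enzyme was 2 nM human or 3 nM rat α-thrombin, pH 7.4 buffer.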

rat α-thrombin = target: T1, rat α-thrombin (Rattus norvegicus, UniProt P18292); experiment: Protease inhibition, Ki for rat α-thrombin (fluorogenic substrate Z-Gly-Gly-Arg-AMC); format: biochemical; settings: replicates R1-R3
T1 construct: rat α-thrombin (Molecular Innovations) were used at final concentrations of 2 nM and 3 nM; purchased Molecular Innovations
How it was run: as §1

`O=C1C[C@H]2CCCN2C(=O)[C@H](Cc2ccccc2)NC(=O)[C@@H](NC(=O)c2ccc(Cl)s2)CCC=CCCCCN1` [peptide 43] was tested, and the “slope normalized to DMSO, human alpha thrombin inhibition” value (human α-thrombin; peptide 1.00E+02 uM) was 10.6 and 8.4 (2×), the “slope normalized to DMSO, human alpha thrombin inhibition” value (human α-thrombin; peptide 1.19E-05 uM) was 106.5 and 81.0 and 107.9 and the “slope normalized to DMSO, human alpha thrombin inhibition” value (human α-thrombin; peptide 1.22E-02 uM) was 62.0 and 85.6 and 70.0. For the same compound, the “slope normalized to DMSO, human alpha thrombin inhibition” value (human α-thrombin; peptide 1.25E+01 uM) was 12.3 and 9.9 and 11.8, the “slope normalized to DMSO, human alpha thrombin inhibition” value (human α-thrombin; peptide 1.53E-03 uM) was 95.1 and 99.7 and 102.7 and the “slope normalized to DMSO, human alpha thrombin inhibition” value (human α-thrombin; peptide 1.56E+00 uM) was 18.3 and 16.9 and 22.5. For the same compound, the “slope normalized to DMSO, human alpha thrombin inhibition” value (human α-thrombin; peptide 1.91E-04 uM) was 119.9 and 101.0 and 100.8, the “slope normalized to DMSO, human alpha thrombin inhibition” value (human α-thrombin; peptide 1.95E-01 uM) was 42.7 and 40.6 and 41.3 and the “slope normalized to DMSO, human alpha thrombin inhibition” value (human α-thrombin; peptide 2.38E-05 uM) was 106.9 and 97.9 and 102.5. The “slope normalized to DMSO, human alpha thrombin inhibition” value (human α-thrombin; peptide 2.44E-02 uM) was 46.0 and 65.3 and 70.3, the “slope normalized to DMSO, human alpha thrombin inhibition” value (human α-thrombin; peptide 2.50E+01 uM) was 11.7 and 11.0 and 8.9 and the “slope normalized to DMSO, human alpha thrombin inhibition” value (human α-thrombin; peptide 3.05E-03 uM) was 106.1 and 101.5 and 67.8. For the same compound, the “slope normalized to DMSO, human alpha thrombin inhibition” value (human α-thrombin; peptide 3.12E+00 uM) was 3.8 and 18.2 and 18.8, the “slope normalized to DMSO, human alpha thrombin inhibition” value (human α-thrombin; peptide 3.81E-04 uM) was 102.1 and 100.1 and 93.5 and the “slope normalized to DMSO, human alpha thrombin inhibition” value (human α-thrombin; peptide 3.91E-01 uM) was 14.9 and 22.0 and 10.5. The “slope normalized to DMSO, human alpha thrombin inhibition” value (human α-thrombin; peptide 4.77E-05 uM) was 101.9 and 97.6 and 92.9, the “slope normalized to DMSO, human alpha thrombin inhibition” value (human α-thrombin; peptide 4.88E-02 uM) was 73.8 and 55.8 and 60.0 and the “slope normalized to DMSO, human alpha thrombin inhibition” value (human α-thrombin; peptide 5.00E+01 uM) was 9.3 and 5.3. For the same compound, the “slope normalized to DMSO, human alpha thrombin inhibition” value (human α-thrombin; peptide 6.10E-03 uM) was 98.4 and 93.3 and 99.0, the “slope normalized to DMSO, human alpha thrombin inhibition” value (human α-thrombin; peptide 6.25E+00 uM) was 13.3 and 15.1 and 10.3 and the “slope normalized to DMSO, human alpha thrombin inhibition” value (human α-thrombin; peptide 7.63E-04 uM) was 80.8 and 91.3 and 104.9. The “slope normalized to DMSO, human alpha thrombin inhibition” value (human α-thrombin; peptide 7.81E-01 uM) was 21.2 and 22.0 (2×), the “slope normalized to DMSO, human alpha thrombin inhibition” value (human α-thrombin; peptide 9.54E-05 uM) was 101.3 and 101.9 and 107.5 and the “slope normalized to DMSO, human alpha thrombin inhibition” value (human α-thrombin; peptide 9.77E-02 uM) was 65.8 and 56.8 and 59.4. The “Human alpha thrombin inhibition, slope normalized to DMSO” value (human α-thrombin; peptide concentration 1.00E+02 uM) was 10.6 and 8.4 (2×), the “Human alpha thrombin inhibition, slope normalized to DMSO” value (human α-thrombin; peptide concentration 1.19E-05 uM) was 106.5 and 81.0 and 107.9 and the “Human alpha thrombin inhibition, slope normalized to DMSO” value (human α-thrombin; peptide concentration 1.22E-02 uM) was 62.0 and 85.6 and 70.0. The “Human alpha thrombin inhibition, slope normalized to DMSO” value (human α-thrombin; peptide concentration 1.25E+01 uM) was 12.3 and 9.9 and 11.8, the “Human alpha thrombin inhibition, slope normalized to DMSO” value (human α-thrombin; peptide concentration 1.53E-03 uM) was 95.1 and 99.7 and 102.7 and the “Human alpha thrombin inhibition, slope normalized to DMSO” value (human α-thrombin; peptide concentration 1.56E+00 uM) was 18.3 and 16.9 and 22.5. The “Human alpha thrombin inhibition, slope normalized to DMSO” value (human α-thrombin; peptide concentration 1.91E-04 uM) was 119.9 and 101.0 and 100.8, the “Human alpha thrombin inhibition, slope normalized to DMSO” value (human α-thrombin; peptide concentration 1.95E-01 uM) was 42.7 and 40.6 and 41.3 and the “Human alpha thrombin inhibition, slope normalized to DMSO” value (human α-thrombin; peptide concentration 2.38E-05 uM) was 106.9 and 97.9 and 102.5. For the same compound, the “Human alpha thrombin inhibition, slope normalized to DMSO” value (human α-thrombin; peptide concentration 2.44E-02 uM) was 46.0 and 65.3 and 70.3, the “Human alpha thrombin inhibition, slope normalized to DMSO” value (human α-thrombin; peptide concentration 2.50E+01 uM) was 11.7 and 11.0 and 8.9 and the “Human alpha thrombin inhibition, slope normalized to DMSO” value (human α-thrombin; peptide concentration 3.05E-03 uM) was 106.1 and 101.5 and 67.8. The “Human alpha thrombin inhibition, slope normalized to DMSO” value (human α-thrombin; peptide concentration 3.12E+00 uM) was 3.8 and 18.2 and 18.8, the “Human alpha thrombin inhibition, slope normalized to DMSO” value (human α-thrombin; peptide concentration 3.81E-04 uM) was 102.1 and 100.1 and 93.5 and the “Human alpha thrombin inhibition, slope normalized to DMSO” value (human α-thrombin; peptide concentration 3.91E-01 uM) was 14.9 and 22.0 and 10.5. The “Human alpha thrombin inhibition, slope normalized to DMSO” value (human α-thrombin; peptide concentration 4.77E-05 uM) was 101.9 and 97.6 and 92.9, the “Human alpha thrombin inhibition, slope normalized to DMSO” value (human α-thrombin; peptide concentration 4.88E-02 uM) was 73.8 and 55.8 and 60.0 and the “Human alpha thrombin inhibition, slope normalized to DMSO” value (human α-thrombin; peptide concentration 5.00E+01 uM) was 9.3 and 5.3. The “Human alpha thrombin inhibition, slope normalized to DMSO” value (human α-thrombin; peptide concentration 6.10E-03 uM) was 98.4 and 93.3 and 99.0, the “Human alpha thrombin inhibition, slope normalized to DMSO” value (human α-thrombin; peptide concentration 6.25E+00 uM) was 13.3 and 15.1 and 10.3 and the “Human alpha thrombin inhibition, slope normalized to DMSO” value (human α-thrombin; peptide concentration 7.63E-04 uM) was 80.8 and 91.3 and 104.9. For the same compound, the “Human alpha thrombin inhibition, slope normalized to DMSO” value (human α-thrombin; peptide concentration 7.81E-01 uM) was 21.2 and 22.0 (2×), the “Human alpha thrombin inhibition, slope normalized to DMSO” value (human α-thrombin; peptide concentration 9.54E-05 uM) was 101.3 and 101.9 and 107.5 and the “Human alpha thrombin inhibition, slope normalized to DMSO” value (human α-thrombin; peptide concentration 9.77E-02 uM) was 65.8 and 56.8 and 59.4. For the same compound, the Ki (human α-thrombin; purified peptide, mean and s.d. of three measurements, read-out: Ki human α-thrombin) was 0.05 ± 0.006 µM, the IC50 (human α-thrombin; single replicates R1-R3, read-out: Human alpha thrombin inhibition, IC50) was 0.0564 µM and 0.0747 µM and 0.0635 µM and the Ki (human α-thrombin; single replicates R1-R3, read-out: Human alpha thrombin inhibition, Ki) was 0.0435 µM and 0.0576 µM and 0.0489 µM. The “slope normalized to DMSO, rat alpha thrombin inhibition” value (rat α-thrombin; peptide 1.00E+02 uM) was 5.4 and 5.2 and 4.3, the “slope normalized to DMSO, rat alpha thrombin inhibition” value (rat α-thrombin; peptide 1.19E-05 uM) was 102.6 and 102.2 and 91.2 and the “slope normalized to DMSO, rat alpha thrombin inhibition” value (rat α-thrombin; peptide 1.22E-02 uM) was 54.9 and 61.5 and 61.2. The “slope normalized to DMSO, rat alpha thrombin inhibition” value (rat α-thrombin; peptide 1.25E+01 uM) was 7.2 and 11.2 and 5.0, the “slope normalized to DMSO, rat alpha thrombin inhibition” value (rat α-thrombin; peptide 1.53E-03 uM) was 90.8 and 92.4 and 84.4 and the “slope normalized to DMSO, rat alpha thrombin inhibition” value (rat α-thrombin; peptide 1.56E+00 uM) was 8.6 and 7.9 and 7.3. The “slope normalized to DMSO, rat alpha thrombin inhibition” value (rat α-thrombin; peptide 1.91E-04 uM) was 101.3 and 100.0 and 99.0, the “slope normalized to DMSO, rat alpha thrombin inhibition” value (rat α-thrombin; peptide 1.95E-01 uM) was 18.2 and 17.7 and 18.1 and the “slope normalized to DMSO, rat alpha thrombin inhibition” value (rat α-thrombin; peptide 2.38E-05 uM) was 104.9 and 102.6 and 101.9. The “slope normalized to DMSO, rat alpha thrombin inhibition” value (rat α-thrombin; peptide 2.44E-02 uM) was 50.2 and 48.9 and 44.8.
